The values below come from patent US12486253B2, “Therapeutics for the degradation of mutant BRAF” (C4 THERAPEUTICS, INC., priority 2021, dated 2025).

SMILES strings stand for the structures. Bounds are passed on as bounds.

Holding throughout (format): cell-based
For one test, the target named is ARAF (Homo sapiens, UniProt P10398). In words: Global proteomics profiling, A375 cells. On the set-up: endogenous in cells; host or cells: A375 (A7.2). To be noted: 300 nM, 24 hours. On the procedure:
Each cell line was treated in duplicate with either DMSO or Compound 157 (final concentration 300 nM) for 24 hours in an incubator at 37° C. with 5% CO2. After the 24-hour incubation, cells were harvested, washed twice with PBS, and snap frozen in liquid nitrogen. Samples were re-suspended in lysis buffer [8 M urea, 50 mM HEPES (pH 8.5), 50 mM NaCl, 1× protease inhibitor cocktail] and lysed by sonication at 4° C. with 85% amplitude in a pulse setting with 30 seconds on and 30 seconds off for a total sonication time of 5 minutes. Lysates were centrifuged at maximum speed for 10 minutes at 4° C. and the supernatant collected, reduced for 1 hour at room temperature with 5 mM TCEP, and the cysteine residues were then alkylated with 15 mM iodoacetamide (room temperature, in dark, 30 minutes). Protein content was extracted by methanol-chloroform precipitation and subsequent ice-cold acetone washes. Protein pellets were resuspended in 8 M urea, 50 mM HEPES (pH 8.5) buffer and protein concentrations were measured by BCA assay. […]
For peptide tandem mass tag (TMT) labeling, 100 μg of peptides per sample was prepared at […] concentration in 200 mM HEPES (pH 8.5), 30% acetonitrile (ACN) and each the specific TMT reagent. […] TMT reporter ion intensities were quantified by extracting the signal-to-noise ratio for each. […]

Another test concerns the target BRAF V600E (Homo sapiens, UniProt P15056, V600E). In words: Western blot of engineered HEK-293T cells expressing BRAF V600E. The conditions noted are these: lentivirus expression. A general note: A western blot detects proteins with antibodies after separation by electrophoresis.
The test system of test [1] is H1666 cells endogenously expressing the class III BRAF mutation G466V. Description: Cellular growth over time in H1666 cells.
For a further test, the system named is phospho-ERK (T202/Y204). Description: HTRF phospho-ERK (T202/Y204) assay in A375-NRAS^Q61K cells. To be noted: 24 hrs, mean of at least n = 3, read-out: pERK IC50. The source says: A375-NRAS^Q61K cells (harboring BRAF homozygous V600E mutation and NRAS homozygous Q61K mutation) were purchased from ATCC. DMEM Medium without phenol red and supplemented with L-glutamine was purchased from Corning (Corning, NY, USA). Advanced phospho-ERK (Thr202/Tyr204) HTRF assay kits were purchased from Cisbio (Bedford, MA, USA). Cell culture flasks and 384-well microplates were acquired from VWR (Radnor, PA, USA) or Corning (Corning, NY, USA).
Degradation of activated phospho-ERK (T202/Y204) protein was determined based on quantification of FRET signal using the Advanced phospho-ERK (T202/Y204) HTRF assay kit. Test compounds were added to the 384-well plate from a top concentration of 10 μM with 11 points, half log titration in duplicates. A375-NRAS^Q61K cells were added into 384-well plates at a cell density of 2000 cells per well. The plates were kept at 37° C. with 5% CO2 for 24 hours. Cells treated in the absence of the test compound were the negative control. Positive control was set by wells containing all reagents but no cells. FRET signal was acquired on EnVision™ Multilabel Reader (PerkinElmer, Santa Clara, CA, USA).

Chain of BRAF V600E (P15056 whole entry V600E): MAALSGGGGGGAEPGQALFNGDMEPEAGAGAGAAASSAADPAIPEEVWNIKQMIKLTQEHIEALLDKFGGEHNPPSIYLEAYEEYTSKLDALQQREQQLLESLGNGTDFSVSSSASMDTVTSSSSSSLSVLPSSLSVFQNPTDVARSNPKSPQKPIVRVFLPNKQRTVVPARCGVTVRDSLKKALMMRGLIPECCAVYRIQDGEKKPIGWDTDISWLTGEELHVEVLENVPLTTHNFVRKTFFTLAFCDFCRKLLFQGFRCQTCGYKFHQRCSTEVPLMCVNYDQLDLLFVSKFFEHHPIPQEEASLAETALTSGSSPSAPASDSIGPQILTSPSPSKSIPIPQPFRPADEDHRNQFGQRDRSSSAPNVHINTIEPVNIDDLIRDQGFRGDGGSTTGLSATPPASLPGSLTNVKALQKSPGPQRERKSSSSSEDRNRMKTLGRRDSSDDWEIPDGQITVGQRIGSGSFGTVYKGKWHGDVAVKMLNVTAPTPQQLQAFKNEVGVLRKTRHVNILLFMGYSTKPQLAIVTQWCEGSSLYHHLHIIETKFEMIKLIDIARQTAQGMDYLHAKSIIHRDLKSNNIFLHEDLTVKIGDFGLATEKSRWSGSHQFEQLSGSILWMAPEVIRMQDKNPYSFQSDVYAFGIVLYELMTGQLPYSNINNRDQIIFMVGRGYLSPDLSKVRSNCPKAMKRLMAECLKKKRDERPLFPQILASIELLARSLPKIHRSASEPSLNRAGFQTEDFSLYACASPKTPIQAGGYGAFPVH
Chain of ARAF (P10398 whole entry): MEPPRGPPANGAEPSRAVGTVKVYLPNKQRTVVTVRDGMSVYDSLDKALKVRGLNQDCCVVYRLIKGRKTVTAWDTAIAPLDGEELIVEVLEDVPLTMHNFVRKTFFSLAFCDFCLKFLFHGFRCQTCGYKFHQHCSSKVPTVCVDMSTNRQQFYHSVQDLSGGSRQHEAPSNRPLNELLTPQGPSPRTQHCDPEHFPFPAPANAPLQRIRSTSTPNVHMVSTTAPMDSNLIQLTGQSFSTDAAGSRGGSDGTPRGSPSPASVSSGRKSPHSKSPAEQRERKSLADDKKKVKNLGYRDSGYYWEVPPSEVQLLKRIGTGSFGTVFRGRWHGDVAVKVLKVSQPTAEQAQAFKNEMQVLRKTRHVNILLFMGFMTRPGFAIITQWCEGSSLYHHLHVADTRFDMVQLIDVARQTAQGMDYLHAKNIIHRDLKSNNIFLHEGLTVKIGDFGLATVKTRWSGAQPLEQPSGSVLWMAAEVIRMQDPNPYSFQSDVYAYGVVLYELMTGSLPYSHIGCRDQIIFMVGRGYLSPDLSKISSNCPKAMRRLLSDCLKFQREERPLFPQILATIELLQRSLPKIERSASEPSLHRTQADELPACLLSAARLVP

By IC50 is commonly meant the concentration needed to halve the response being measured. Regarding `CCN(C)S(=O)(=O)Nc1ccc(F)c(Oc2ccc3ncn([C@H]4COC5(CCN(C(=O)CC6(O)CCN(c7cc8c(cc7F)c(N7CCC(=O)NC7=O)nn8C)CC6)CC5)C4)c(=O)c3c2)c1C#N` [Compound 157, (3R)-3-[6-[2-cyano-3-[[ethyl(methyl)sulfamoyl]amino]-6-fluorophenoxy]-4-oxoquinazolin-3-yl]-8-[2-[1-[3-(2,4-dioxo-1,3-diazinan-1-yl)-5-fluoro-1-methylindazol-6-yl]-4-hydroxypiperidin-4-yl]acetyl]-1-oxa-8-azaspiro[4.5]decane], at ARAF, the “ARAF protein level change” value is “remain largely unchanged”. The “degradation of BRAF V600E” value on BRAF V600E was “capable of degrading”. Moreover, the cell growth inhibition result in test [1] (G466V) is reported as “effective”. Further, in test [1] (over the course of 7 days), the confluency was at most 30%. In test [1] (with 1 nM trametinib), the “cell growth, in combination with trametinib” value is reported as “failed to expand”. In the test on phospho-ERK (T202/Y204), the IC50 stood at 7.8 nM.
